Results reported in US20260070927A1, “INDAZOLE MACROCYCLES FOR THE TREATMENT OF AUTOIMMUNE DISEASE” (Hoffmann-La Roche Inc., priority 2022, published 2026).

Experiments:
STING (IFN-β in hPBMC) = experiment: hPBMC cytokine functional assay (IFN-β decrease after Baculovirus stimulation); type: cell-based; conditions: Homo sapiens, Baculovirus MOI 40, 24 hours, read-out: hPBMC_IC50
Method: The inhibition of STING by compounds could be measured by the decrease of IFN-β in hPBMC, which is stimulated by a double stranded DNA virus Baculoviurs (Purchased from Genescript, pCMV-Dest Vector virus generation P2 BV stock virus, Sf-900 II medium with 5% FBS, Lot C9835DK230-2/P4DL001). Frozen hPBMC cells (purchased from Stemcell Technologies, cat number is 70025, Lot 191070803C) were thawed at 37° C. water bath, then cells were re-suspended in 50 ml tube using 20 ml Cell culture medium, and then centrifuged for 5 min at 2000 rpm before the supernatant was removed carefully. The cells were re-suspended in culture medium (RPMI-1640 with 1.5 g/L NaHCO3, 4.5 g/L glucose, 10 mM HEPES and 1 mM Na-pyruvate, 10% HI-FBS); 65 μL of the cell suspension was dispensed into 384 well plate (70K cells/well) by Multidrop Combi with at least 3 hours incubation at 37° C., 5% CO2 cell incubator.
Then 4 μL of compound solution per well (final 0.5% DMSO) was transferred by Agilent Bravo followed by infection with 11 μL of Baculovirus at a final MOI of 40. The level of IFN-β secreted in the supernatant of hPBMC was determined after 24 hours of incubation at 37° C. cell incubator by human IFN-β HTRF assay (Cisbio, cat: 62HIFNBPEH) following the manufacture's instruction. CellTiter-Glo kit (Promega, cat: G7573) was applied for the cell viability evaluation using Envision.

[1] = molecular target: human stimulator of interferon genes (STING) (139-379) (Homo sapiens (Human), UniProt Q86WV6); experiment: Microliter plate-based TR-FRET competition-binding assay for binders of STING; conditions: Alexa488 probe, read-out: FRET_IC50
human stimulator of interferon genes (STING) (139-379), sequence (Q86WV6 139-379): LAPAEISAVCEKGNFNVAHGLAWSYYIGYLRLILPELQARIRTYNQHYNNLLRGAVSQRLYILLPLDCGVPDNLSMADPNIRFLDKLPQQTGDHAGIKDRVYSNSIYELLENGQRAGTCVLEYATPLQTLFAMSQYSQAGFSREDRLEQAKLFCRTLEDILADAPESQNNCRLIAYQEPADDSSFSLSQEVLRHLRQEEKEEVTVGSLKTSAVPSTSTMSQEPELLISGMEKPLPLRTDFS
Method: This is the competition-binding assay to test the compounds' potency to the C-terminal Domain (CTD) and ligand-binding domain of human stimulator of interferon genes (STING). STING (139-379, Q86WV6, http://www.uniprot.org/uniprot) recombinant protein (in 20 mM Tris, 150 mM NaCl, pH 8.0, and expression in Escherichia coli (E. coli) BL21 (DE3)) with a C-terminal flag-tag was employed for the assay. When Alexa-488 labeled active site probe (refer to patent WO2017/175156 A1) bounds to STING (139-379), it accepts the 485 nm emission from Tb-M2-Flag-STING and results in an increase in fluorescence at 520 nm. Compounds that compete for the probe-binding site will reduce 520 nm signal. The assay was run in proxiplate-384 plus (PerkinElmer, cat: 60150300) containing of 2.5 nM STING, 2.5 nM M2-Tb (Cisbio, 61FG2TLA, Lot: 17 A) and 250 nM Alexa488 probe. Plates were centrifuged for 1 min at 1000 rpm, incubated for 30 min at room temperature, and then measured the dual fluorescence emission at 520 nm/485 nM following 320 nm laser excitation on an Envision plate reader (Perkin-Elmer). The compounds' effect on the STING binding is detected by measuring ratiometric fluorescence from time-resolved FRET. The percentage of inhibition of at each compound concentration is calculated on the basis of their changes of TR-FRET efficiency relative to the change of TR-FRET caused by positive control 2′3′cGAMP (Sigma, cat: SML1229).

[2] = Metabolic (liver microsomal) stability assay; conditions: human liver microsomes, 1 μM test compound
Method: The liver microsomal stability assay is used for early assessment of metabolic stability of a test compound in liver microsomes.
Liver microsomes were preincubated with test compound for 10 minutes at 37° C. in 100 mM potassium phosphate buffer, pH 7.4. The reactions were initiated by adding NADPH regenerating system. The final incubation mixtures contained 1 μM test compound, 0.5 mg/mL liver microsomal protein, 1 mM MgCl2, 1 mM NADP, 1 unit/mL isocitric dehydrogenase and 6 mM isocitric acid in 100 mM potassium phosphate buffer, pH 7.4. After incubation times of 0, 3, 6, 9, 15 and 30 minutes at 37° C., 300 μL of cold acetonitrile (including internal standard) was added to 100 μL incubation mixture to terminate the reaction. Following precipitation and centrifugation, the amount of compound remaining in the samples were determined by LC-MS/MS. Controls of no NADPH regenerating system at zero and 30 minutes were also prepared and analyzed.

SMILES | IC50 (STING (IFN-β in hPBMC)) [nM] | IC50 [1] [nM] | Clearance of human microsome [2] [mL/min/kg]
Cn1nc2cccc3c2c1CCCN(CCO)C(=O)[C@@H]1C[C@@H](CN1c1ncnc2c1cnn2-c1ccc(F)cc1F)Oc1cccc-3c1 [Example 22, (8S,11S)-10-[1-(2,4-difluorophenyl)pyrazolo[3,4-d]pyrimidin-4-yl]-13-(2-hydroxyethyl)-18-methyl-7-oxa-10,13,18,19-tetrazapentacyclo[15.6.1.1^2,6.1^8,11.0^20,24]hexacosa-1(23),2(26),3,5,17(24),19,21-heptaen-12-one] | 264 | 0.2 | 15.5
COc1cc(F)ccc1-n1ncc2c(N3C[C@@H]4C[C@H]3C(=O)N(C)CCCc3c5c(cc(F)cc5nn3C)-c3ccnc(n3)O4)ncnc21 [Example 12, (8S,11S)-22-fluoro-10-[1-(4-fluoro-2-methoxy-phenyl)pyrazolo[3,4-d]pyrimidin-4-yl]-13,18-dimethyl-7-oxa-5,10,13,18,19,26-hexazapentacyclo[15.6.1.1^2,6.1^8,11.0^20,24]hexacosa-1(23),2(26),3,5,17(24),19,21-heptaen-12-one] | 1410 | 18 | 13.2
CN1CCCc2c3c(cccc3nn2C)-c2cncc(n2)N[C@H]2C[C@@H](C1=O)N(c1ncnc3c1cnn3-c1ccc(F)cc1F)C2 [Example 7, (8S,11S)-10-[1-(2,4-difluorophenyl)pyrazolo[3,4-d]pyrimidin-4-yl]-13,18-dimethyl-4,7,10,13,18,19,26-heptazapentacyclo[15.6.1.1^2,6.1^8,11.0^20,24]hexacosa-1(23),2,4,6(26),17(24),19,21-heptaen-12-one] | 325 | 0.4 | 13.3
Cn1nc2cccc3c2c1CCCN(CCC(C)(C)O)C(=O)[C@@H]1C[C@@H](CN1c1ncnc2c1cnn2-c1ccc(F)cc1F)Oc1cccc-3c1 [Example 40, (8S,11S)-10-[1-(2,4-difluorophenyl)pyrazolo[3,4-d]pyrimidin-4-yl]-13-(3-hydroxy-3-methyl-butyl)-18-methyl-7-oxa-10,13,18,19-tetrazapentacyclo[15.6.1.1^2,6.1^8,11.0^20,24]hexacosa-1(23),2(26),3,5,17(24),19,21-heptaen-12-one] | 708 | 8.6 | 15.6
Cn1nc2cccc3c2c1CCCN(CCCO)C(=O)[C@@H]1C[C@@H](CN1c1ncnc2c1cnn2-c1ccc(F)cc1F)Nc1cccc-3n1 [Example 42, (8S,11S)-10-[1-(2,4-difluorophenyl)pyrazolo[3,4-d]pyrimidin-4-yl]-13-(3-hydroxypropyl)-18-methyl-7,10,13,18,19,26-hexazapentacyclo[15.6.1.1^2,6.1^8,11.0^20,24]hexacosa-1(23),2(26),3,5,17(24),19,21-heptaen-12-one] | – | 5.3 | 13.3
COc1cc(F)ccc1-n1ncc2c(N3C[C@@H]4C[C@H]3C(=O)N(CCCN3CCOCC3)CCCc3c5c(cccc5nn3C)-c3cc(C)cc(n3)N4)ncnc21 [Example 46, (8S,11S)-10-[1-(4-fluoro-2-methoxy-phenyl)pyrazolo[3,4-d]pyrimidin-4-yl]-4,18-dimethyl-13-(3-morpholinopropyl)-7,10,13,18,19,26-hexazapentacyclo[15.6.1.1^2,6.1^8,11.0^20,24]hexacosa-1(23),2(26),3,5,17(24),19,21-heptaen-12-one] | – | 7.6 | 14.9
Cn1nc2cccc3c2c1CCCN(CCCN1CC2(COC2)C1)C(=O)[C@@H]1C[C@@H](CN1c1ncnc2c1cnn2-c1ccc(F)cc1F)Oc1cccc-3c1 [Example 31, (8S,11S)-10-[1-(2,4-difluorophenyl)pyrazolo[3,4-d]pyrimidin-4-yl]-18-methyl-13-[3-(2-oxa-6-azaspiro[3.3]heptan-6-yl)propyl]-7-oxa-10,13,18,19-tetrazapentacyclo[15.6.1.1^2,6.1^8,11.0^20,24]hexacosa-1(23),2(26),3,5,17(24),19,21-heptaen-12-one] | 517 | 7.2 | 12.4
Cn1nc2cccc3c2c1CCCN(CC1CC1)C(=O)[C@@H]1C[C@@H](CN1c1ncnc2c1cnn2-c1ccc(F)cc1F)Oc1cc-3ncn1 [Example 18, (8S,11S)-13-(cyclopropylmethyl)-10-[1-(2,4-difluorophenyl)pyrazolo[3,4-d]pyrimidin-4-yl]-18-methyl-7-oxa-3,5,10,13,18,19-hexazapentacyclo[15.6.1.1^2,6.1^8,11.0^20,24]hexacosa-1(23),2(26),3,5,17(24),19,21-heptaen-12-one] | 491 | 12.5 | 12.4
COc1cc(F)ccc1-n1ncc2c(N3C[C@@H]4C[C@H]3C(=O)N(CCCN3CCOCC3)CCCc3c5c(ccc(F)c5nn3C)-c3cccc(n3)N4)ncnc21 [Example 45, (8S,11S)-21-fluoro-10-[1-(4-fluoro-2-methoxy-phenyl)pyrazolo[3,4-d]pyrimidin-4-yl]-18-methyl-13-(3-morpholinopropyl)-7,10,13,18,19,26-hexazapentacyclo[15.6.1.1^2,6.1^8,11.0^20,24]hexacosa-1(23),2(26),3,5,17(24),19,21-heptaen-12-one] | 569 | 3.9 | 15.9
CN1CCCc2c3c(cccc3nn2C)-c2ccnc(n2)N[C@H]2C[C@@H](C1=O)N(c1ncnc3c1cnn3-c1ccc(F)cc1F)C2 [Example 4, (8S,11S)-10-[1-(2,4-difluorophenyl)pyrazolo[3,4-d]pyrimidin-4-yl]-13,18-dimethyl-5,7,10,13,18,19,26-heptazapentacyclo[15.6.1.1^2,6.1^8,11.0^20,24]hexacosa-1(23),2,4,6(26),17(24),19,21-heptaen-12-one] | 413 | 0.5 | 15.0
Cn1nc2cccc3c2c1CCCN(CCCN1CCOCC1)C(=O)[C@@H]1C[C@@H](CN1c1ncnc2c1cnn2-c1ccc(F)cc1F)Oc1cccc-3c1 [Example 30, (8S,11S)-10-[1-(2,4-difluorophenyl)pyrazolo[3,4-d]pyrimidin-4-yl]-18-methyl-13-(3-morpholinopropyl)-7-oxa-10,13,18,19-tetrazapentacyclo[15.6.1.1^2,6.1^8,11.0^20,24]hexacosa-1(23),2(26),3,5,17(24),19,21-heptaen-12-one] | 173 | 2 | –
CN1CCCc2c3c(cccc3nn2C)-c2ccnc(n2)N[C@H]2C[C@@H](C1=O)N(c1nccn3c(-c4ccc(F)cc4F)ncc13)C2 [Example 5, (8S,11S)-10-[3-(2,4-difluorophenyl)imidazo[1,5-a]pyrazin-8-yl]-13,18-dimethyl-5,7,10,13,18,19,26-heptazapentacyclo[15.6.1.1^2,6.1^8,11.0^20,24]hexacosa-1(23),2,4,6(26),17(24),19,21-heptaen-12-one] | 308 | 3.8 | –
C=CCN1CCCc2c3c(cccc3nn2C)-c2cccc(c2)O[C@H]2C[C@@H](C1=O)N(c1ncnc3c1cnn3-c1ccc(F)cc1F)C2 [Example 20, (8S,11S)-13-allyl-10-[1-(2,4-difluorophenyl)pyrazolo[3,4-d]pyrimidin-4-yl]-18-methyl-7-oxa-10,13,18,19-tetrazapentacyclo[15.6.1.1^2,6.1^8,11.0^20,24]hexacosa-1(23),2(26),3,5,17(24),19,21-heptaen-12-one] | 346 | 1.9 | –
